Test results from patent US20060099682A1, “Human vanilloid receptors and their uses” (Glaxo Group Limited, priority 1998, published 2006).

How the values were obtained:
Type in all cases: cell-based
rat VR1 = target: T1, rat VR1 (Rattus norvegicus, UniProt O35433); experiment: FLIPR calcium assay (fluo3-AM) with HEK293 cells stably expressing rat VR1
T1 construct: expressed in transfected cells
Procedure: Intracellular calcium is monitored with the calcium sensitive dye, fluo3-AM. HEK293 cells stably expressing rat VR1 were plated into a 96 well, poly-l-lysine treated FLIPR plate at 3×10^4 cells per well. On the following day, the plate was processed for FLIPR. FBP buffer was prepared (15 μM Probenecid (calcium ATPase pump blocker) in 1× FLIPR buffer (145 mM NaCl, 5 mM KCl, 1 mM MgCl2, 2 mM CaCl2, 10 mM glucose, 20 mM Hepes). FBP buffer pH was then adjusted to 7.4 with NaOH. 400 μl DMSO was added to a vial of fluo3-AM (Cambridge Bioscience, F-1241). The fluo3-AM solution was incubated at 37° C. for 10 min and vortexed. LOAD was prepared by adding 20 μl of fluo3-AM solution and 20 μl 20% pleuronic F-127 in DMSO (Cambridge Bioscience, P-3000) into 10 ml FBP. The 96 well plate containing cells was flicked off to remove cell medium. 100 μl LOAD was added per well. Cells were then incubated at 37° C. for 60 minutes. Capsaicin (a rVR1 agonist) and capsazepine (CPZ, a rVR1 antagonist) were prepared at 10× the desired final assay concentrations in FBP. The plate was flicked to remove LOAD from cells, and 180 μl FBP was added per well. […] Cells were monitored for 70 seconds after agonist addition. The FLIPR traces (fluorescence change (counts) versus time (seconds)) were produced for each well. […] The plate was incubated for 15 minutes at room temperature prior reading in the FLIPR.

hVR1 [1] = target: T2, hVR1 (Homo sapiens, UniProt Q8NER1, M315I/T469I); experiment: Whole-cell patch clamp electrophysiology of human VR-1 channels transiently expressed in HEK293T cells; design: pClN5-new (B) with the full length hVR1 gene cloned via NotI and EcoRI restriction sites; expressed in transfected cells; host or cells: HEK293T
Procedure: The activation of human VR-1 channels transiently expressed in HEK293T cells by capsaicin was investigated. Cells grown on poly-L-lysine-coated glass coverslips were placed in a recording chamber (0.5 ml) and superfused with extracellular solution (2 ml min^−1). The extracellular solution contained: NaCl (140 mM), KCl (5 mM), MgCl2 (2 mM), CaCl2 (2 mM), 4-(2-hydroxethyl)-1-piperazineethanesulphonic acid (HEPES, 10 mM) and glucose (10 mM). The pH was adjusted to 7.4 with NaOH and osmolarity ranged from 310-320 mOsm I^−1. Patch pipettes (borosilicate glass) were pulled using a Sutter P-97 electrode puller. The pipettes were filled with an internal solution consisting of: CsCl (140 mM), ethylene glycol-bis(β-aminoethyl ether) N,N,N′,N′-tetra acetic acid Cs salt (Cs-EGTA, 5 mM) and HEPES (10 mM). The pH was adjusted to 7.25 using CsOH and the osmolarity ranged from 275-290 mOsm. When filled with this internal solution, patch electrodes had resistances of 2-5 MΩ. Currents were recorded using standard whole-cell voltage clamp recording techniques (31) at room temperature (21-23° C.) using an Axopatch 200A amplifier and signals were sampled at 2 or 0.1 kHz. The majority of series resistance errors (80-85%) were minimized with compensation circuitry. Membrane potentials were not corrected for junction potentials (<4 mV). Voltage pulses and data collection were performed on-line using pClamp8 software (Axon Instruments) interfaced with amplifiers. Membrane potentials were maintained at −60 mV between protocols.
Capsaicin or capsazepine (CPZ) were applied, using a ‘fast-flow sytem’, directly onto the recording cell (<1 s to equilibrate). […]

hVR1 [2] = target: T2, hVR1; experiment: Calcium imaging (fura2-AM) with HEK293 cells expressing hVR1; design: pClN5-new (B) with the full length hVR1 gene cloned via NotI and EcoRI restriction sites; expressed in transfected cells; host or cells: HEK293; details: 37° C.
Procedure: HEK293 cells expressing hVR1 transiently or stably, were plated onto poly-l-lysine coated cover slips at 1×10^5 cells per well. They were analysed on the following day by calcium imaging (QuantiCell 700, Applied Imaging). On the day of experiment, WASH buffer was prepared by adding CaCl2 to extracellular medium (ECM) to a final concentration of 2 mM, (ECM contains 125 mM NaCl, 5 mM KCl, 2 mM MgCl2, 0.5 mM NaH2PO4, 5 mM NaHCO3, 10 mM Hepes, 10 mM glucose, 0.1% BSA, pH7.4). The calcium sensitive dye solution was prepared by adding 50 μl 5% pluronic F-127 in DMSO (Molecular Probes) to a vial of fura2-AM (Molecular Probes). After mixing, 20 μl of the fura2-AM solution was added to 10 ml WASH. 1.5 ml was then added to cells, which were then incubated at 37° C. for 30 minutes. The plate was washed three times with WASH. 1 ml WASH was added and stored in dark. Agonists and antagonists were prepared in WASH at 5× their required assay concentrations. The reagents and assay temperature was kept at 37° C. For the transiently transfected cells, the YFP reporter DNA fluorescence (490 nm excitation) was used to identify the transfected cells. Cells were initially imaged in 400 μl WASH (or 300 μl WASH plus 100 μl antagonist e.g. capsazepine). After approximately 1 min, 100 μl agonist (e.g. capsaicin, anadamide or resiniferatoxin) at 5× the desired concentration was added to give final 1× concentration. […]

[3] = 1 μM CPZ against 1 μM capsaicin, holding potential −60 mV

T2 sequence (Q8NER1 whole entry M315I/T469I, the tested form may be a part): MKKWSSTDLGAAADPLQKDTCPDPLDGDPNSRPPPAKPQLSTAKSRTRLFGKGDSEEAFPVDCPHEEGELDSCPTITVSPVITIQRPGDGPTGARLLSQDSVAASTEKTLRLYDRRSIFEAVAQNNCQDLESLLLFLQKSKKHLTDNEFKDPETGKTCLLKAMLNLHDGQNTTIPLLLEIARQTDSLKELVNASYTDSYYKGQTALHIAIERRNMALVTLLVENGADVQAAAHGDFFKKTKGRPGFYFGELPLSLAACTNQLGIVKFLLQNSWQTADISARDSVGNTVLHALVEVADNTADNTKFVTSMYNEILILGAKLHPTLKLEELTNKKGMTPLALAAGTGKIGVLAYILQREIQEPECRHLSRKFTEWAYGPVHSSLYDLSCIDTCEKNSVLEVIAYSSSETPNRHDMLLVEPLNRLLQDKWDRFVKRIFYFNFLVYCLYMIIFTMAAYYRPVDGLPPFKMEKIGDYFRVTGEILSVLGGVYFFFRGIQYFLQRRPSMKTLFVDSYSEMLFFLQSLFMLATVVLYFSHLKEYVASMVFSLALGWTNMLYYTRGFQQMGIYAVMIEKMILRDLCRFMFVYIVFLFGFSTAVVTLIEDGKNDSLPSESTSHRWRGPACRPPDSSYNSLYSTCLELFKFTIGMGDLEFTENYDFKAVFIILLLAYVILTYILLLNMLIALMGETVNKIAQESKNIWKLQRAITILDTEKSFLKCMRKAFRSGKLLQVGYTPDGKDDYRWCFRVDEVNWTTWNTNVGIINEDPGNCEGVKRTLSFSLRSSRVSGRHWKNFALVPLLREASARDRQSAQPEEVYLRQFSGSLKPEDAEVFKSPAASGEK
T1 sequence (O35433 whole entry): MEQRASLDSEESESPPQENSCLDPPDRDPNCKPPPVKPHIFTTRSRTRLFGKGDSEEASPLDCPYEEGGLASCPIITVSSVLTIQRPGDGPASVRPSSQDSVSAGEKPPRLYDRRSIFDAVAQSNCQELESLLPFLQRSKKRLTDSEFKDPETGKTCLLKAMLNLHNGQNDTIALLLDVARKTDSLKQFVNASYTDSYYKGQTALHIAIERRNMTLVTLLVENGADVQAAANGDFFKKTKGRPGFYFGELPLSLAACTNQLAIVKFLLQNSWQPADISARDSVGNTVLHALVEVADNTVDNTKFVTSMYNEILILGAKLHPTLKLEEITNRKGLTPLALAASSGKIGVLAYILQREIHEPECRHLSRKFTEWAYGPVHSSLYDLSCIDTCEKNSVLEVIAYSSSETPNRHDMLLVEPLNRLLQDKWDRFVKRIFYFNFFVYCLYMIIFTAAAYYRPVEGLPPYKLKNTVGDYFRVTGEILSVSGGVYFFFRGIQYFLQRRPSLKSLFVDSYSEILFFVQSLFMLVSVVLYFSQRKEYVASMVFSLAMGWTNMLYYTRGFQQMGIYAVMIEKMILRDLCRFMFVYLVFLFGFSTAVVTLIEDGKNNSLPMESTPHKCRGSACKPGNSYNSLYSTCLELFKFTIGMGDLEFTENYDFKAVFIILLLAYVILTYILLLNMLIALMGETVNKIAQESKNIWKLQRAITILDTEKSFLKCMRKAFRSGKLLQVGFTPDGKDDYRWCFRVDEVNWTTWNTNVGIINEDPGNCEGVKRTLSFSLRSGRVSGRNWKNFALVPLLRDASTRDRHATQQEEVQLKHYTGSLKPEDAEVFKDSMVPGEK

| SMILES | antagonism of the capsaicin VR1 response (FLIPR peak heights) (rat VR1; cells pre-incubated in CPZ 15 minutes at room temperature) | blockade of capsaicin-evoked inward current (hVR1 [1]; [3]) | reversibility of blockade (hVR1 [1]; [3]) | blockade of capsaicin-evoked current in voltage ramps (hVR1 [1]; 1 μM CPZ against 1 μM capsaicin, voltage ramps −100 to +70 mV) | recovery after blockade in voltage ramps (hVR1 [1]; 1 μM CPZ, especially inward currents evoked by negative potentials) | FLIPR trace after agonist addition (fluorescence change) (rat VR1; HEK293 stably expressing rVR1, monitored 70 seconds after addition) | current-voltage relationship (hVR1 [1]; 1 μM capsaicin, voltage ramps −100 to +70 mV) | reduction of current by the 6th addition (desensitisation, rundown) (hVR1 [1]; capsaicin 1 μM added at 2 min intervals for about 40 s, 2 mM external calcium, current at +65 mV) | size of capsaicin-evoked current when external calcium replaced (hVR1 [1]; capsaicin 1 μM, external calcium replaced with 5 mM EGTA) | current evoked by application of capsaicin (hVR1 [1]; capsaicin 1 μM, membrane held at −60 mV, HEK293T transiently expressing human VR1) | calcium influx response after addition of agonist (hVR1 [2]) |
| --- | --- | --- | --- | --- | --- | --- | --- | --- | --- | --- | --- |
| Oc1cc2c(cc1O)CN(C(=S)NCCc1ccc(Cl)cc1)CCC2 [CPZ, capsazepine] | peak heights are reduced | abolished | partially reversible | completely blocked the current | only partial recovery was observed | – | – | – | – | – | – |
| COc1cc(CNC(=O)CCCC/C=C/C(C)C)ccc1O [capsaicin] | – | – | – | – | – | Peaks indicate capsaicin-gated calcium influx | substantial outward rectification | about 4 fold | increased dramatically | produces an inward current | stimulated to influx calcium |
